Here are results for 1 substance from patent US11389465B2, “Phosphorylated hexaacyl disaccharides (PHADs) for treating or preventing infections” (VANDERBILT UNIVERSITY, priority 2017, dated 2022).

A short description of series [1]: Physiological response of non-burned sheep to MPLA infusion (FIG. 6). It is filed as in vivo. The settings on record: 1 hour monitoring. Here is the method: FIG. 6. Effects of MPLA infusion at the indicated doses over 10 minutes. Endpoints were recorded over a 1 hour period beginning at the end of the MPLA infusion.
In further studies, the response of sheep to MPLA infusion was assessed (FIG. 6). Instrumented sheep received infusions of MPLA at doses of 5, 10 or 30 ug/kg in 10 ml of endotoxin-free lactated Ringer's solution over 10 minutes. Physiological parameters were monitored for 1 hour after MPLA infusion. […] These observations indicate that sheep have sensitivity to MPLA that is very similar to humans.

For series [2], the system named is tissue macrophages and neutrophils. Put plainly: MPLA modulation of tissue macrophages and neutrophils (FIG. 10). It is filed as in vivo, mice. The source says: FIG. 10. MPLA induces resistance to infection via modulation of tissue macrophages and neutrophils. A-C) Total splenic A) macrophages, B) neutrophils, and C) monocytes 3 days after S. aureus inoculation or vehicle in MPLA- and vehicle-primed mice. D) Representative image of F4/80^+ immunohistochemical staining (brown) in kidney 3 days after S. aureus inoculation in MPLA- and vehicle-primed mice E) Optical density quantification of F4/80^+ staining in kidneys. F) Mice were primed with MPLA or vehicle via intraperitoneal injection and 24 hours later pHrodo tagged S. aureus bioparticles were injected into the peritoneal cavity. Peritoneal leukocytes were harvested 6 hours later and assessed for pHrodo MFI via flow cytometry. G) Mice were primed with MPLA or vehicle via intraperitoneal injection and 24 hours later leukocytes were harvested from the peritoneal cavity. Respiratory burst was elicited by 45 minutes of PMA stimulation and DHR 123 MFI of macrophages, neutrophils, and monocytes was assessed by flow cytometry. H) Mice were administered intravenous clodronate-liposomes 24 hours prior to the first MPLA administration. Mice were then inoculated with intravenous 10^8 cfu S. aureus. Kaplan-Meier survival plot after S. aureus infection (n=15 mice/group). I) Mice were administered intravenous anti-Ly6G antibody 24 hours prior to the first MPLA administration. Mice were then inoculated with intravenous 10^8 cfu S. aureus. Kaplan-Meier survival plot after S. aureus infection (n=10 mice/group). J) C57BL6 WT and CCR2^−/− mice were primed with MPLA or vehicle and inoculated with intravenous 10^8 cfu S. aureus. Kaplan-Meier survival plot after S. aureus infection (n=10 mice/group). K) WT C57BL6 and RAG2^−/− mice were injected with intravenous MPLA or vehicle prior to intravenous inoculation with 10^8 cfu S. aureus. Kaplan-Meier survival plot (n=10 mice/group). Data shown as mean+/−SEM. For Kaplan-Meier plots *, p<0.05 via log-rank Mantel-Cox test. Otherwise, *, p<0.05 as determined by ANOVA with Tukey's post-hoc multiple comparison test
MPLA treatment increases macrophage, monocyte and neutrophil accumulation in the spleen (FIG. 10, A-C), increases macrophage accumulation in S. aureus abscesses (FIG. 10, D-E) and increases macrophage phagocytosis and respiratory burst functions (FIG. 10, F-G).

For series [3], the system named is Pseudomonas aeruginosa. Put plainly: Pseudomonas burn wound infection in mice, MPLA given before inoculation (FIG. 1). The format is in vivo. The note with it: MPLA 20 μg. Here is the method: FIG. 1. MPLA treatment improves host resistance to Pseudomonas burn wound infection. Mice exposed to a 20% full thickness burn wound were treated with MPLA on days 3 and 4 post-burn and were inoculated with 1×10^8 Pseudomonas aeruginosa in the caudad (area 3) portion of the burn wound. A. Wounds were excised 48 hours after inoculation, sectioned into 3 segments (areas 1-3) and homogenized. Bacterial colony forming units (cfu) were determined by culture on agar plates. B. At 4-6 days after infection, wound and lungs were harvested, homogenized and cultured to measure Pseudomonas cfu. C. Survival was determined after Pseudomonas infection. *p<0.05 compared to vehicle.
Consequently, MPLA is currently employed by Glaxo Smith Kline as a component of the FDA-approved ASO4 vaccine adjuvant system (27, 28). […] It was also shown that total wound bacteria and dissemination of Pseudomonas from the burn wound to the lungs was diminished in mice treated with MPLA (FIG. 1B).

The conditions of series [4]: in vivo; cited from earlier work.
For series [5], the system named is C. albicans. Put plainly: Systemic (intravenous) C. albicans infection in MPLA-primed mice (FIG. 2). The format is in vivo. The settings on record: MPLA 20 μg; intravenous C. albicans 1×10^8 CFU. Here is the method: FIG. 2. MPLA induces resistance to S. aureus and C. albicans infection. A) WT BALB/c mice were injected with intravenous MPLA (20 μg/mouse) or vehicle one and two days prior to intravenous inoculation with intravenous 10^8 cfu S. aureus or 10^8 cfu C. albicans. B) Kaplan Meier survival curve of vehicle- and MPLA-primed mice. (n=12 mice/group) after S. aureus inoculation. C) Core (rectal) body temperature assessed daily after S. aureus inoculation. D) S. aureus cfu per gram of tissue recoverable from whole spleen, lung, and kidney in vehicle and MPLA-primed mice at 3 days after S. aureus inoculation. E) Concentration of serum IL-6 2 hours after S. aureus inoculation or vehicle. F) Concentration of serum BUN 3 days after S. aureus inoculation or vehicle. G) Kaplan Meier survival curve of vehicle- and MPLA-primed mice. (n=12 mice/group) after intravenous 10^8 cfu C. albicans inoculation. H) Core (rectal) body temperature after C. albicans inoculation. Data shown as mean+/−SEM. For Kaplan-Meier plots *, p<0.05 via log-rank Mantel-Cox test. Otherwise, *, p<0.05 as determined by ANOVA with Tukey's post-hoc multiple comparison test.
MPLA is also effective in improving survival in models of systemic S. aureus and C. albicans infection. Mice treated with MPLA (20 μg) after a 20% cutaneous burn received intravenous challenge with S. aureus or C. albicans (1×10^8 CFU) on day 5 post-burn (FIG. 2).

The test system of series [6] is Pseudomonas aeruginosa. The series can be described thus: Duration of MPLA activity, intraperitoneal P. aeruginosa challenge (FIG. 4). It is filed as in vivo, mice. The method, then: FIG. 4. Duration of MPLA activity. Mice were treated with MPLA (20 μg IP) for 2 consecutive days and challenged with P. aeruginosa at the designated times after the last MPLA treatment. *<0.05 compared to vehicle control.
It is important to know how long the effect of PHADs lasts to guide dosing frequency. Studies were performed with MPLA that show a duration of action of up to 10 days. Mice were treated with MPLA on 2 consecutive days (20 μg, IP) followed by intraperitoneal challenge with Pseudomonas aeruginosa (1×10^8) at 1, 7, 10 or 15 days after the last MPLA treatment (FIG. 4).

Turning to Monophosphoryl Lipid A [MPLA], in series [1] (MPLA 5 ug/kg infused over 10 minutes), the “temperature, heart rate or mean pulmonary artery pressure” value was “did not change”. In addition, in series [1] (MPLA 10 or 30 ug/kg infused over 10 minutes), the “temperature, heart rate and mean pulmonary artery pressure” value is given as “all parameters were increased”. Besides, the “macrophage, monocyte and neutrophil accumulation in the spleen” value in series [2] (3 days after S. aureus inoculation) is on record as “increases”. In series [2] (clodronate-liposomes or anti-Ly6G, survival after S. aureus, not with cells of the adaptive immune system), the “beneficial effects of MPLA after depletion of macrophages or neutrophils” value was “ablates the beneficial effects of MPLA”. For the same substance, the “macrophage phagocytosis and respiratory burst functions” value in series [2] (intraperitoneal priming, peritoneal leukocytes) is on record as “increases”. For the same substance, the “macrophage accumulation in S. aureus abscesses” value in series [2] (kidney, F4/80+ staining, 3 days after inoculation) is on record as “increases”. In series [3] (20% burn, 4-6 days after infection), the “total wound bacteria and dissemination of Pseudomonas from the burn wound to the lungs” value was “diminished”. Further, the survival entry in series [3] (20% burn, Pseudomonas wound infection) was “One hundred”; in series [5], 40%. In series [3] (20% cutaneous burn, wound inoculated in area 3), the “spread of bacteria within the burn wound (areas 1 and 2)” value is “decreased spread of bacteria within the burn wound”. In series [4], the “dose relative to LPS that can be administered to humans before adverse side effects occur” value was 1000-10,000 times. Moreover, in series [6] (MPLA 20 μg IP on 2 consecutive days), the duration of action result is reported as “up to 10 days”. In series [6] (challenge at 1, 7 and 10 days after last MPLA treatment, compared to vehicle), the bacterial burden entry is “significantly lower bacterial burden”. The attenuation of hypothermia result in series [6] (challenge up to 15 days after last MPLA treatment) is listed as “persisted until day 15”.
